Laboratory results reported in patent publication US12319912B2, “MicroRNA expression promoting agent and food or beverage for promoting expression of microRNA” (Kewpie Corporation, priority 2019, dated 2025).

How the values were obtained:
Format in all cases: in vivo, nude mice (BALB/c-nu/nu)
Details in all cases: 0.25% (w/w) pterostilbene in feed, MM-231-luc-D3H2LN tumors removed at 21 days, female nude mice
miR-200c = test: Expression level of miR-200c in removed tumors after oral administration of pterostilbene-containing feed (quantitative RT-PCR)
Method: (§1) An animal feed for test (pterostilbene-containing powdery animal feed) was prepared by the following method. That is, first, 50 g of corn oil was weighed and heated to 70° C. Pterostilbene was added to the heated corn oil and was dissolved therein. Reagents other than corn oil and pterostilbene (other reagents) were ground in a mortar, and the mixture was mixed. The corn oil in which pterostilbene was dissolved was added to the mixture of other reagents, and the mixture was mixed by sufficiently grinding in a mortar. Subsequently, the mixture was further mixed with a stirrer for about 30 minutes, and thus an animal feed for test was prepared. […]
(§2) At a time point where one week had passed after grouping, the mice in each group were subjected to a cancer cell transplantation experiment. […] Confirmation of whether the cancer cells were transplanted was achieved by leaving the animals for a while after transplantation, intraperitoneally administering a 15 mg/ml luciferin solution (Beetle Luciferin, Potassium Salt, Promega Corporation) in an amount of 150 mg/kg, and measuring cell-derived luminescence (luciferase activity) with IVIS Spectrum (PerkinElmer, Inc.) after about 10 minutes. […] The body weights of the mice were measured in a timely manner. […] Then, luminescence was observed over time with IVIS spectrum every other week from the day of administration initiation. […]

miR-141 = test: Expression level of miR-141 in removed tumors after oral administration of pterostilbene-containing feed (quantitative RT-PCR)
Method: as §1, §2

miR-34a = test: Expression level of miR-34a in removed tumors after oral administration of pterostilbene-containing feed (quantitative RT-PCR)
Method: as §1, §2

miR-16 = test: Expression level of miR-16 in removed tumors after oral administration of pterostilbene-containing feed (quantitative RT-PCR)
Method: as §1, §2

miR-126 = test: Expression level of miR-126 in removed tumors after oral administration of pterostilbene-containing feed (quantitative RT-PCR)
Method: as §1, §2

miR-193b = test: Expression level of miR-193b in removed tumors after oral administration of pterostilbene-containing feed (quantitative RT-PCR)
Method: as §1, §2

let-7a = test: Expression level of let-7a in removed tumors after oral administration of pterostilbene-containing feed (quantitative RT-PCR)
Method: as §1, §2

COc1cc(/C=C/c2ccc(O)cc2)cc(OC)c1 [pterostilbene, Pterostilbene]
promoted: expression of miR-200c as compared to the control group (miR-200c) | expression of miR-141 as compared to the control group (miR-141) | expression of miR-34a as compared to the control group (miR-34a) | expression of miR-16 as compared to the control group (miR-16) | expression of miR-126 as compared to the control group (miR-126) | expression of miR-193b as compared to the control group (miR-193b) | expression of let-7a as compared to the control group (let-7a)
